Experimental findings from patent publication US20250320250A1, “PHARMACEUTICAL COMPOSITIONS FOR THE TREATMENT OF VISCERAL PAIN” (Ironwood Pharmaceuticals, Inc., priority 2021, published 2025) are described below.

This assay deals with visceral hypersensitivity and bladder dysfunction. The assay can be described thus: Nonclinical pharmacology models of visceral hypersensitivity and bladder dysfunction. The conditions noted are these: doses above 10 μg/kg/day. Type of assay: in vivo. The procedure: The peptide of the present disclosure doses of 100 μg and 300 μg were selected based on nonclinical pharmacology models of visceral hypersensitivity and bladder dysfunction using the peptide of the present disclosure and another GC-C agonist, linaclotide, with similar activity. […] The human equivalent daily dose (HED) extrapolated from pharmacologically active dose levels in nonclinical models is 180 μg to 600 μg (based on body weight) and 15 μg to 100 μg based on body surface area. Choosing 2 doses for investigation in this study should allow for observation of a dose response.

Regarding “peptide of the present disclosure: GC-C agonist peptide, active pharmaceutical ingredient of the rectal foam composition (CXELCCNVACYGC; not fully specified; SITE 2 X is a homocysteine contributing to a cystathionine unit (linking the homocysteine at residue 2 and cysteine at residue 10 via a thioether bond); DISULFID 1..6 Intrachain; DISULFID 5..13 Intrachain; CROSSLNK 2..10 homocysteine at position 2 and the cysteine at position 10 are connected by an internal sulfide (or thioether bond); SITE 1 Optionally acetylated N-terminus)”, the “benefit at higher doses” value was “diminishing benefit”.
